Test system: T1, EbF7GAT
T1 construct: gene F7GAT; tag removal not mentioned
Assay: HPLC of glucuronide product, initial-rate kinetics
Assay type: biochemical, Erigeron breviscapus
Conditions: UDP-glucuronic acid as donor (1 mM in standard assay), 50 mM Tris-HCl pH 7.5, 37 °C

Row | Compound | Km (5-300 µM scutellarein) | Km (10 min, 0.1-20 µM apigenin)
1 | O=c1cc(-c2ccc(O)cc2)oc2cc(O)c(O)c(O)c12 [scutellarein] | 70.2 µM | –
2 | O=c1cc(-c2ccc(O)cc2)oc2cc(O)cc(O)c12 [apigenin] | – | 9.24 µM

— PMC5792594, “Engineering yeast for the production of breviscapine by genomic analysis and synthetic biology approaches” (Nature Communications, 2018)
